ChEMBL document CHEMBL1201862, “PubChem BioAssay data set” (2004)
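Cultured in 96-well plates, cells were exposed to test compound for 48 hours across five concentrations. At the GI50, growth is halved.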 Calls of active or inactive are those of the source. Rule as the data show it: active = GI50 up to about 1.1 µM and inactive = higher.

Assays:
Assay in all cases: NCI tumour cell line growth inhibition, 48 h
COLO 205 = tested on: COLO 205
Malme-3M = tested on: Malme-3M
NCI-H460 = tested on: NCI-H460
SK-MEL-5 = tested on: SK-MEL-5
SF-539 = tested on: SF-539
K562 = tested on: K562
SK-MEL-2 = tested on: SK-MEL-2
SR = tested on: SR
A498 = tested on: A498
NCI-H522 = tested on: NCI-H522
SW-620 = tested on: SW-620
MOLT-4 = tested on: MOLT-4
M14 = tested on: M14
A549 = tested on: A549
SN12C = tested on: SN12C
U-251 = tested on: U-251
ACHN = tested on: ACHN
UO-31 = tested on: UO-31
UACC-62 = tested on: UACC-62
OVCAR-8 = tested on: OVCAR-8

Measured: GI50

CCOC(=O)c1c(Cl)nc2ccccc2c1N=[N+]=[N-]
inactive: COLO 205 21.5 µM | Malme-3M 34.8 µM | NCI-H460 23.7 µM | SK-MEL-5 44.5 µM | SF-539 18.6 µM | K562 69.5 µM | SK-MEL-2 19.2 µM | SR 32.7 µM | A498 > 100 µM | NCI-H522 16.7 µM | SW-620 19.5 µM | MOLT-4 24.2 µM | M14 19.1 µM | A549 66.8 µM | SN12C 16.8 µM | U-251 24.5 µM | ACHN 40.3 µM | UO-31 18.7 µM

CC(C)=CCC/C(C)=C/CC/C(C)=C/C(O)c1ccccc1 (stereo unspecified)
inactive: COLO 205 18.5 µM | Malme-3M 19.2 µM | NCI-H460 19.5 µM | SK-MEL-5 16.6 µM | K562 61.4 µM | SK-MEL-2 19.8 µM | SR 20.7 µM | A498 19.5 µM | NCI-H522 > 10 µM | SW-620 20.2 µM | M14 18.3 µM | SN12C 19.1 µM | UACC-62 17 µM | OVCAR-8 20.6 µM | U-251 18.2 µM | ACHN 17.4 µM | UO-31 21 µM

COC1(O)c2cccc(Cl)c2C(=O)N1C1(C(N)=O)CCCCC1 (stereo unspecified)
inactive: COLO 205 > 100 µM | Malme-3M > 100 µM | NCI-H460 > 100 µM | SK-MEL-5 > 100 µM | SF-539 > 100 µM | K562 > 100 µM | SK-MEL-2 > 100 µM | A498 > 100 µM | NCI-H522 > 100 µM | SW-620 > 100 µM | MOLT-4 > 100 µM | A549 > 100 µM | SN12C > 100 µM | UACC-62 > 100 µM | OVCAR-8 > 100 µM | U-251 > 100 µM | UO-31 > 100 µM

c1ccc(COc2cccc3ccc[n+](Cc4ccccc4)c23)cc1
inactive: COLO 205 6.44 µM | Malme-3M 4.23 µM | NCI-H460 8.93 µM | SF-539 7.82 µM | K562 2.38 µM | SK-MEL-2 5.21 µM | A498 16.6 µM | NCI-H522 1.95 µM | SW-620 9.75 µM | MOLT-4 5.35 µM | M14 9.38 µM | A549 7.46 µM | UACC-62 4.6 µM | U-251 4.01 µM | ACHN 8.2 µM | UO-31 25.8 µM

O=C(O)C(SC(=S)c1ccc(C(=S)SC(C(=O)O)c2ccccc2)cc1)c1ccccc1 (stereo unspecified)
inactive: Malme-3M > 100 µM | NCI-H460 > 100 µM | SK-MEL-5 > 100 µM | SF-539 > 100 µM | K562 44.5 µM | SK-MEL-2 > 100 µM | SR > 100 µM | A498 69.8 µM | SW-620 > 100 µM | MOLT-4 > 100 µM | M14 > 100 µM | A549 > 100 µM | SN12C > 100 µM | UACC-62 47.3 µM | OVCAR-8 > 100 µM | U-251 > 100 µM | ACHN > 100 µM | UO-31 92.7 µM

O=C(Nc1nccs1)c1c(O)nc2sccn2c1=O
inactive: COLO 205 > 10 µM | Malme-3M > 10 µM | NCI-H460 > 10 µM | SK-MEL-5 > 10 µM | SF-539 > 10 µM | SK-MEL-2 > 10 µM | SR > 10 µM | A498 > 10 µM | NCI-H522 > 10 µM | SW-620 > 10 µM | MOLT-4 > 10 µM | M14 > 10 µM | A549 > 10 µM | SN12C > 10 µM | UACC-62 > 10 µM | OVCAR-8 > 10 µM | U-251 > 10 µM | ACHN > 10 µM | UO-31 6.55 µM

O=C(O)C1CC2C=CCC(C2)C1 (stereo unspecified)
inactive: COLO 205 > 100 µM | Malme-3M > 100 µM | NCI-H460 > 100 µM | SK-MEL-5 > 100 µM | K562 > 100 µM | SK-MEL-2 91.8 µM | SR > 100 µM | NCI-H522 > 100 µM | SW-620 > 100 µM | MOLT-4 > 100 µM | M14 > 100 µM | A549 > 100 µM | UACC-62 > 100 µM | OVCAR-8 > 100 µM | U-251 > 100 µM | ACHN > 100 µM | UO-31 > 100 µM

CC1SC2=NC3=C(c4ccccc4C3=O)C(c3ccccc3Cl)N2C1=O (stereo unspecified)
inactive: COLO 205 > 100 µM | Malme-3M > 100 µM | NCI-H460 > 100 µM | SK-MEL-5 > 100 µM | SF-539 > 100 µM | K562 90.2 µM | SK-MEL-2 > 100 µM | A498 > 100 µM | NCI-H522 30.8 µM | SW-620 > 100 µM | MOLT-4 75 µM | M14 > 100 µM | A549 > 100 µM | SN12C > 100 µM | UACC-62 80.2 µM | OVCAR-8 > 100 µM | U-251 > 100 µM | ACHN > 100 µM | UO-31 > 100 µM

C[Si](C)(N[Si](C)(C)OCCc1ccccc1)OCCc1ccccc1
inactive: NCI-H460 > 100 µM | SK-MEL-5 > 100 µM | SK-MEL-2 > 100 µM | A498 > 100 µM | SW-620 > 100 µM | M14 > 100 µM | SN12C > 100 µM | UACC-62 > 100 µM | OVCAR-8 > 100 µM | U-251 > 100 µM | ACHN > 100 µM | UO-31 > 100 µM

COc1ccc(Nc2cnc3cc(N)ccc3n2)cc1OC
inactive: COLO 205 > 100 µM | Malme-3M > 100 µM | NCI-H460 23.9 µM | SK-MEL-5 49.9 µM | K562 46.8 µM | SK-MEL-2 44.3 µM | SR 33.7 µM | SW-620 > 100 µM | MOLT-4 36.5 µM | M14 > 100 µM | SN12C 39.3 µM | UACC-62 72.3 µM | OVCAR-8 37.4 µM | U-251 40.7 µM | ACHN 83.9 µM | UO-31 > 100 µM

CC(Cc1ccccc1)NC1=NCCO1 (stereo unspecified)
inactive: COLO 205 17.5 µM | NCI-H460 17.9 µM | SK-MEL-5 32.3 µM | SF-539 14 µM | SK-MEL-2 39.6 µM | SR 42.8 µM | A498 29.8 µM | NCI-H522 59.6 µM | SW-620 34.3 µM | MOLT-4 47 µM | A549 38.8 µM | SN12C 21.8 µM | UACC-62 52.4 µM | OVCAR-8 48.1 µM | U-251 25.1 µM | ACHN 46 µM | UO-31 23.6 µM

CCN1CCC(O)(c2ccc(O)cc2)C(C(=O)c2ccc(O)cc2)C1 (stereo unspecified)
inactive: COLO 205 4.45 µM | Malme-3M 20.5 µM | NCI-H460 > 100 µM | SK-MEL-5 10.8 µM | K562 12 µM | SR 16.5 µM | A498 > 10 µM | SW-620 2.95 µM | MOLT-4 21.9 µM | M14 19.5 µM | SN12C 22.3 µM | UACC-62 16.4 µM | OVCAR-8 40.6 µM | U-251 > 100 µM | ACHN 19.8 µM | UO-31 21.6 µM

CSc1nc2c(nc(N)n2C2OCC(O)C(O)C2O)c(=O)[nH]1 (stereo unspecified)
inactive: COLO 205 > 100 µM | Malme-3M > 100 µM | NCI-H460 > 100 µM | SK-MEL-5 > 100 µM | SF-539 > 100 µM | K562 > 100 µM | SR > 100 µM | A498 > 100 µM | NCI-H522 > 100 µM | SW-620 > 100 µM | MOLT-4 > 100 µM | M14 > 100 µM | A549 > 100 µM | SN12C > 100 µM | UACC-62 > 100 µM | OVCAR-8 > 100 µM | U-251 > 100 µM | ACHN > 100 µM | UO-31 > 100 µM

N#CC(C#N)=C1CCC2C(=C(C#N)C#N)CCC12 (stereo unspecified)
inactive: COLO 205 > 100 µM | Malme-3M > 100 µM | NCI-H460 > 100 µM | SK-MEL-5 > 100 µM | SF-539 > 100 µM | K562 > 100 µM | SR > 100 µM | A498 > 100 µM | NCI-H522 > 100 µM | SW-620 > 100 µM | MOLT-4 > 100 µM | M14 > 100 µM | A549 > 100 µM | SN12C > 100 µM | UACC-62 > 100 µM | OVCAR-8 > 100 µM | U-251 > 100 µM | UO-31 > 100 µM

CCc1ccc2nc(-c3ccc(O)cc3)sc2c1
inactive: COLO 205 15.3 µM | Malme-3M 17.3 µM | NCI-H460 21.1 µM | SK-MEL-5 17.8 µM | SF-539 11.7 µM | K562 19.6 µM | SK-MEL-2 16.5 µM | A498 18 µM | NCI-H522 3.86 µM | SW-620 20.6 µM | MOLT-4 13.6 µM | M14 18.7 µM | A549 17.9 µM | SN12C 14.6 µM | UACC-62 12.4 µM | OVCAR-8 19.5 µM | U-251 17.7 µM | ACHN 17.7 µM | UO-31 11.8 µM

CC[n+]1c(-c2ccccc2)c2cc(N)ccc2c2ccc(N)cc21 [HOMIDIUM BROMIDE]
inactive: COLO 205 1.68 µM | NCI-H460 5.06 µM | SK-MEL-5 1.2 µM | SF-539 1.53 µM | K562 2.96 µM | SK-MEL-2 2.08 µM | SW-620 3.67 µM | MOLT-4 2.36 µM | M14 13.6 µM | A549 11.9 µM | SN12C 3.24 µM | U-251 4.38 µM | ACHN 19 µM
